From ChEMBL document CHEMBL2169860, “Design of a hypoxia-activated prodrug inhibitor of O6-alkylguanine-DNA alkyltransferase” (Bioorg Med Chem Lett, 2012)
Active and inactive are the calls of the source. The rule behind the calls is not given here.

Legend:
EMT6 [1] = experiment: Prodrug activation in mouse EMT6 cells assessed as 6-((3-((dimethylamino)methyl)benzyl)oxy)-9H-purin-2-amine level under hypoxic condition at 200 uM after 1 hr by HPLC analysis; format: cell-based; conditions: emt6, 1 h
EMT6 [2] = experiment: Prodrug activation in mouse EMT6 cells assessed as 6-((3-((dimethylamino)methyl)benzyl)oxy)-9H-purin-2-amine level under oxic condition at 200 uM after 1 hr by HPLC analysis; format: cell-based; conditions: emt6, 1 h
EMT6 [3] = experiment: Cytotoxicity against mouse EMT6 cells expressing human AGT assessed as cell survival fraction at 2 uM after 18 hrs by clonogenic assay; format: cell-based; conditions: emt6, 18 h
EMT6 [4] = experiment: Potentiation of laromustine-induced cytotoxicity against mouse EMT6 cells expressing human AGT assessed as cell survival fraction at 2 uM treated 2 hrs before laromustine addition measured after 18 hrs by clonogenic assay; format: functional, cell-based
EMT6 [5] = experiment: Stability of the compound in mouse EMT6 cells assessed as parent compound level under hypoxic condition at 200 uM after 1 hr by HPLC analysis; format: ADME, cell-based; conditions: emt6, 1 h
EMT6 [6] = experiment: Stability of the compound in mouse EMT6 cells assessed as parent compound level under oxic condition at 200 uM after 1 hr by HPLC analysis; format: ADME, cell-based; conditions: emt6, 1 h
[7] = target: T1, Methylated-DNA--protein-cysteine methyltransferase (Homo sapiens, UniProt P16455)
T1 sequence (P16455 whole entry): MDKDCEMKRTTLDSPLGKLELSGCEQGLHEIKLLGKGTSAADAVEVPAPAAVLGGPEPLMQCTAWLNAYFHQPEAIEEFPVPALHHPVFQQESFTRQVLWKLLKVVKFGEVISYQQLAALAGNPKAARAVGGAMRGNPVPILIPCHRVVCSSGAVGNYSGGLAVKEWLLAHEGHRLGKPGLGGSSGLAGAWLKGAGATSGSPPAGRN
Description: Inhibition of AGT in human HL60 cells assessed as AGT levels using [3H]AGT after 2 hrs

SMILES	Activity (EMT6 [3])	Activity (EMT6 [4])	IC50 [7] [nM]	also measured
CN(C)Cc1cccc(COc2nc(NC(=O)OC(C)(C)c3ccc([N+](=O)[O-])cc3)nc3[nH]cnc23)c1				Drug metabolism (EMT6 [1]): 149.6 µM; Drug metabolism (EMT6 [2]): 195.5 µM
Nc1nc(OCc2ccccc2)c2[nH]cnc2n1 [6-O-BENZYLGUANINE]	Non-toxic			
Nc1nc(OCc2ccccc2)c2nc[nH]c2n1		Active		
CN(C)Cc1cccc(COc2nc(N)nc3[nH]cnc23)c1	Non-toxic	Active	25	Stability (EMT6 [5]): 12.3 µM; Stability (EMT6 [6]): 0.2 µM
CC(=O)NCc1cccc(COc2nc(N)nc3[nH]cnc23)c1	Non-toxic	Active	86	
NCc1cccc(COc2nc(N)nc3nc[nH]c23)c1	Non-toxic	Active		
